Counter-ions that a name gives are not always drawn.
Biological target: T1, sodium-dependent serotonin transporter (Homo sapiens, UniProt P31645)
T1 construct: gene SLC6A4; human recombinant, CHO cell membrane
Test: radioligand displacement of [3H]imipramine on recombinant CHO cell membranes, single dose […]
Assay type: binding

T1 sequence (P31645 whole entry): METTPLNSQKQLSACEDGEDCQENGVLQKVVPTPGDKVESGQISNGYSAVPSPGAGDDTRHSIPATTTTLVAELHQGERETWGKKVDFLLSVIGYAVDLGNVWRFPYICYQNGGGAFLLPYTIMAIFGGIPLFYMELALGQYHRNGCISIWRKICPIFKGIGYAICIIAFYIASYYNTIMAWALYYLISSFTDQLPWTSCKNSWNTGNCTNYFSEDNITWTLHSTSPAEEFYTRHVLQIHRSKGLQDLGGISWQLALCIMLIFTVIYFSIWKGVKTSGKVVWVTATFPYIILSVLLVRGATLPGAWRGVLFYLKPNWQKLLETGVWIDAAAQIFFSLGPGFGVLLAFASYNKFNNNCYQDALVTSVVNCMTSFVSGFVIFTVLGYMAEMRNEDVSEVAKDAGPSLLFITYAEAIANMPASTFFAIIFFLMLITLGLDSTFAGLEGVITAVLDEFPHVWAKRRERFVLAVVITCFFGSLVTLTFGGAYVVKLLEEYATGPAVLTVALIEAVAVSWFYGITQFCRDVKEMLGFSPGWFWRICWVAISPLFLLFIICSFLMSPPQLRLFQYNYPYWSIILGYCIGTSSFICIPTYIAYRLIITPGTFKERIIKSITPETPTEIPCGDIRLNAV

With `CN(C)c1cccc(NC(=O)N2CCN(Cc3ccc(OC4CCNCC4)c(Br)c3)CC2)c1` [KR-37524, 4-(3-bromo-4-(piperidin-4-yloxy)benzyl)-N-(3-(dimethylamino)phenyl)piperazine-1-carboxamide dihydrochloride] the inhibition at 10 µM was over 50%.

— PMC8384862, “Identification of new target proteins of a Urotensin-II receptor antagonist using transcriptome-based drug repositioning approach” (Scientific Reports, 2021)
